#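 Step 1: Grow cells in 96-well plates. Step 2: Expose to compound for 48 hours at 5 concentrations. Step 3: Interpolate endpoints linearly; if unreached, use highest concentration. At the GI50, growth is halved. TGI denotes the concentration required for complete inhibition of growth.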
# Key:
# Experiment in all cases: NCI tumour cell line growth inhibition, 48 h
# 786-0 renal = test system: 786-0 renal
# EKVX NSCLC = test system: EKVX NSCLC
# IGROV1 ovarian = test system: IGROV1 ovarian
# MCF7 breast = test system: MCF7 breast
# MDA-MB-231 breast = test system: MDA-MB-231 breast
# MOLT-4 leukemia = test system: MOLT-4 leukemia
# SF-539 CNS = test system: SF-539 CNS
# SN12C renal = test system: SN12C renal
# SW-620 colon = test system: SW-620 colon
# UACC-62 melanoma = test system: UACC-62 melanoma
Structure (SMILES),GI50 (786-0 renal) [µM],TGI (786-0 renal) [µM],GI50 (EKVX NSCLC) [µM],TGI (EKVX NSCLC) [µM],GI50 (IGROV1 ovarian) [µM],TGI (IGROV1 ovarian) [µM],GI50 (MCF7 breast) [µM],TGI (MCF7 breast) [µM],GI50 (MDA-MB-231 breast) [µM],TGI (MDA-MB-231 breast) [µM],GI50 (MOLT-4 leukemia) [µM],TGI (MOLT-4 leukemia) [µM],GI50 (SF-539 CNS) [µM],TGI (SF-539 CNS) [µM],GI50 (SN12C renal) [µM],TGI (SN12C renal) [µM],GI50 (SW-620 colon) [µM],TGI (SW-620 colon) [µM],GI50 (UACC-62 melanoma) [µM],TGI (UACC-62 melanoma) [µM]
CC(=O)CCc1ccc(OC2OC(COC(=O)c3cc(O)c(O)c(O)c3)C(O)C(O)C2OC(=O)/C=C/c2ccccc2)cc1 (configuration not stated),18.6,48.2,40.3,72,19,38.6,22.7,47.1,19.6,44.5,17.2,48.7,26.4,44.8,20.4,44.4,35.1,97.5,18.4,32.6
O=C1c2cccnc2C(=O)C2C3C=CC(C3)C12 (configuration not stated),,24.2,,28.8,,24,,15.4,,9.97,,,,13.4,,29.2,,28.2,,9.94
COc1cc2cc(C(=O)CCC(=O)O)sc2cc1OC,> 100,> 100,> 100,> 100,> 100,> 100,> 100,> 100,> 100,> 100,> 100,> 100,16.5,> 100,> 100,> 100,> 100,> 100,> 100,> 100
Cn1ccnc1C(=O)/C=C/c1ccc(C(=O)Nc2ccc(S(F)(F)(F)(F)F)cc2)cc1,3.86,> 14.3,0.953,> 14.3,3.08,> 14.3,0.481,> 14.3,2.33,> 14.3,1.72,10.1,2.4,6.45,2.77,> 14.3,0.54,5.58,2.28,> 14.3
CCCCOc1ccc(NC(=O)n2nc(N)c3ccccc32)cc1,19.7,48.4,17.4,85.1,33,> 100,5.62,32.3,14,41.5,0.921,34.8,17.2,35.7,23.4,85.9,19,37.2,14.7,38.3
CCOC(=O)/C(=N\OC)C(O)C(F)(F)F (configuration not stated),,> 100,,> 100,,> 100,,> 100,,> 100,,> 100,,> 100,,> 100,,> 100,,> 100
CC(=O)N1N=C(c2ccc(Nc3nc(Nc4ccc(Cl)cc4)nc(Nc4ccc(Cl)cc4)n3)cc2)CC1c1ccc([N+](=O)[O-])cc1 (configuration not stated),3.8,26.3,4.22,> 40.1,6.51,> 65.6,1.71,10.4,10.2,> 92,1.92,8.35,6,25.5,13.4,> 100,8.77,> 100,11.9,34.9
CCOc1ccc(-c2cnnn2-c2nonc2-n2cccc2)cc1,0.416,> 100,0.569,> 100,0.581,> 100,0.283,> 100,0.337,5.03,0.51,31.7,0.319,3.77,0.557,> 100,0.111,> 100,0.379,> 60.3
CC(C)(O)C#Cc1ccc(/C=C/C(=O)c2ccccc2)s1,14.8,28.8,17.9,32,14.7,27.8,3.63,16.7,16.7,32.3,16.8,43.6,15.8,29.2,18.1,32.1,19.5,40.9,13.7,26.6
COc1ccc(-n2cc(-c3cc(OC)c(OC)c(OC)c3)nc2SCc2ccccc2)cc1,> 100,> 100,11.6,> 100,> 100,> 100,15.4,> 100,> 100,> 100,9.03,> 100,> 100,> 100,> 100,> 100,> 100,> 100,42.2,> 100
CC(=O)Nc1ccc(/C=C/C(=O)c2ccccc2)cc1,23.9,53.4,16.6,33.6,9.44,30.6,3.5,13.9,17.7,44.6,5.55,68.4,14,32.9,12.9,29.5,4.32,17.1,17.8,39.2
CCCCCc1nc2c(c3c1CCCC3)CCCC2,13.4,27.8,4.21,26.9,5.73,26.2,5.28,21.2,11,26.2,8.88,62.6,17.4,36.2,12.3,34.2,11.2,27.3,12.1,29.2
COC(=O)C1=C(C)NC(C)=C(C(=O)OC)C1/C=C(\Cl)c1ccc(Cl)c(Cl)c1,17,30.8,10.7,24.9,15.5,28.9,11.4,33.5,11.9,25.3,3.69,27.6,17.1,33,14,27.5,12.2,28.7,6.42,20.3
O=C(Nc1ccccc1)c1nn(-c2cc(S(=O)(=O)O)c([N+](=O)[O-])cc2Cl)[n+](-c2cc(S(=O)(=O)[O-])c([N+](=O)[O-])cc2Cl)n1,,> 100,,> 100,,> 100,,> 100,,94,,> 100,,> 100,,> 100,,> 100,,> 100
c1ccc2c(c1)sc1c3cnccc3ccc21,,> 100,,> 100,,> 100,,> 100,,> 100,,> 100,,> 100,,> 100,,> 100,,> 100
C#CCN(Cc1nc2cc(C(F)(F)F)ccc2nc1-c1ccccc1)c1ccc(OC(F)(F)F)cc1,> 100,> 100,32.6,> 100,34.8,> 100,32,> 100,28.4,> 100,32.2,> 100,20,41.2,38.2,> 100,40.9,> 100,48.6,> 100
COc1cc(-n2cc(-c3ccc(F)cc3)nc2SCc2ccccc2)cc(OC)c1OC,> 100,> 100,> 100,> 100,> 100,> 100,> 100,> 100,> 100,> 100,89.2,> 100,> 100,> 100,> 100,> 100,> 100,> 100,> 100,> 100
Cc1ccc2c(c1)c1nc3cc(C)c(C)cc3nc1n2CCN(C)C,2.56,10.8,2.95,11.4,1.93,4.77,2.91,9.7,2.11,8.5,1.73,16.3,2.15,6.13,1.44,8.77,1.13,5.46,1.59,3.57
COc1cc(C(=O)N2N=C(c3ccc(S(C)(=O)=O)cc3)CC2c2ccco2)cc(OC)c1OC (configuration not stated),8.51,> 100,21.3,> 100,5.4,> 100,2.89,> 100,11.2,> 100,3.08,> 100,3.12,17.4,12.3,> 100,3.62,> 100,3.82,> 100
C=C(C)C1Cc2c(cc(OC)c3c(=O)c4cccc(O)c4oc23)O1 (configuration not stated),,32.9,,> 100,,33.1,,17.4,,47.6,,> 100,,32.3,,76.7,,> 100,,31.9
CC1=C(/C=C/C(=O)O)C(C)(C)CCC1,,> 100,,> 100,,> 100,,> 100,,> 100,,,,> 100,,> 100,,> 100,,> 100
COc1ccc2c(c1)=C(C=C1C=CN(O)C=C1)C(=O)N=2,31,> 92.3,43.9,> 100,16.2,> 94.4,20.9,> 100,23.6,> 100,31.2,> 100,28.8,> 65.8,22.1,59.2,25.5,> 67.8,26.3,86.1
O=C(Nc1ccc(F)cc1)Nc1ccccc1CNc1nc(Nc2ccc(OCCN3CCCC3)cc2)ncc1Cl,0.92,1.77,2.22,9.82,5.27,13.3,1.37,4.75,0.871,1.77,1.53,4.74,0.831,1.57,0.984,2.01,1.65,6.84,0.968,2.04
CN(Cc1ccc(Cl)cc1)c1ccc(CO)c(Cl)c1,3.82,17,13.5,35.3,0.365,2.24,1.34,12.5,11,29.9,18,66.2,14,28.8,8.55,22.6,3.85,19.5,0.33,2.2
CCC[CH2][Sn]([CH2]CCC)([O]C(=O)c1cc(F)ccc1F)[O][Sn]([CH2]CCC)([CH2]CCC)[O]C(=O)c1cc(F)ccc1F,0.158,0.405,0.69,2.11,1.03,2.33,0.0822,0.776,0.436,1.63,0.111,,0.386,1.22,0.314,1.27,0.116,0.274,0.206,0.665
COc1cc2c3c(n(CCCN(CCN)CCCn4c5c(c6cc(OC)c(OC)cc6c4=O)C(=O)c4cc6c(cc4-5)OCO6)c(=O)c2cc1OC)-c1cc2c(cc1C3=O)OCO2,0.314,1.51,11.9,> 62.6,,,0.376,> 36,3.3,17.3,0.0846,,0.238,0.731,0.141,0.755,0.719,> 70.7,0.24,0.858
CC(C)[C@H]1CC[C@H]2[C@@H](CC[C@H]3[C@](C)(CN)CCC[C@]23C)C1,1.82,3.24,4.11,17,,,1.51,2.85,2.05,4.51,2.21,5.2,1.59,2.95,1.75,3.65,1.84,3.49,3.38,14.3
